Measurements as given in ChEMBL document CHEMBL5036320, “Discovery of Icenticaftor (QBW251), a Cystic Fibrosis Transmembrane Conductance Regulator Potentiator with Clinical Efficacy in Cystic Fibrosis and Chronic Obstructive Pulmonary Disease” (J Med Chem, 2021).
Values after ≈ are worked out from the molar mass of the structure shown.

Legend:
[1] = tested on: Cystic fibrosis transmembrane conductance regulator (Homo sapiens), P13569 [F508del]; test: Potentiation of CFTR F508del mutant (unknown origin) expressed in CHO cells assessed as chloride transport by measuring membrane potential incubated for 5 to 30 mins in presence of forskolin by Quattro assay relative to PG-01; format: cell-based; set-up: concentration or dose not given beside the values; settings: time 5-30 min
Cystic fibrosis transmembrane conductance regulator (Homo sapiens), P13569 [F508del], sequence (P13569 as listed by the source): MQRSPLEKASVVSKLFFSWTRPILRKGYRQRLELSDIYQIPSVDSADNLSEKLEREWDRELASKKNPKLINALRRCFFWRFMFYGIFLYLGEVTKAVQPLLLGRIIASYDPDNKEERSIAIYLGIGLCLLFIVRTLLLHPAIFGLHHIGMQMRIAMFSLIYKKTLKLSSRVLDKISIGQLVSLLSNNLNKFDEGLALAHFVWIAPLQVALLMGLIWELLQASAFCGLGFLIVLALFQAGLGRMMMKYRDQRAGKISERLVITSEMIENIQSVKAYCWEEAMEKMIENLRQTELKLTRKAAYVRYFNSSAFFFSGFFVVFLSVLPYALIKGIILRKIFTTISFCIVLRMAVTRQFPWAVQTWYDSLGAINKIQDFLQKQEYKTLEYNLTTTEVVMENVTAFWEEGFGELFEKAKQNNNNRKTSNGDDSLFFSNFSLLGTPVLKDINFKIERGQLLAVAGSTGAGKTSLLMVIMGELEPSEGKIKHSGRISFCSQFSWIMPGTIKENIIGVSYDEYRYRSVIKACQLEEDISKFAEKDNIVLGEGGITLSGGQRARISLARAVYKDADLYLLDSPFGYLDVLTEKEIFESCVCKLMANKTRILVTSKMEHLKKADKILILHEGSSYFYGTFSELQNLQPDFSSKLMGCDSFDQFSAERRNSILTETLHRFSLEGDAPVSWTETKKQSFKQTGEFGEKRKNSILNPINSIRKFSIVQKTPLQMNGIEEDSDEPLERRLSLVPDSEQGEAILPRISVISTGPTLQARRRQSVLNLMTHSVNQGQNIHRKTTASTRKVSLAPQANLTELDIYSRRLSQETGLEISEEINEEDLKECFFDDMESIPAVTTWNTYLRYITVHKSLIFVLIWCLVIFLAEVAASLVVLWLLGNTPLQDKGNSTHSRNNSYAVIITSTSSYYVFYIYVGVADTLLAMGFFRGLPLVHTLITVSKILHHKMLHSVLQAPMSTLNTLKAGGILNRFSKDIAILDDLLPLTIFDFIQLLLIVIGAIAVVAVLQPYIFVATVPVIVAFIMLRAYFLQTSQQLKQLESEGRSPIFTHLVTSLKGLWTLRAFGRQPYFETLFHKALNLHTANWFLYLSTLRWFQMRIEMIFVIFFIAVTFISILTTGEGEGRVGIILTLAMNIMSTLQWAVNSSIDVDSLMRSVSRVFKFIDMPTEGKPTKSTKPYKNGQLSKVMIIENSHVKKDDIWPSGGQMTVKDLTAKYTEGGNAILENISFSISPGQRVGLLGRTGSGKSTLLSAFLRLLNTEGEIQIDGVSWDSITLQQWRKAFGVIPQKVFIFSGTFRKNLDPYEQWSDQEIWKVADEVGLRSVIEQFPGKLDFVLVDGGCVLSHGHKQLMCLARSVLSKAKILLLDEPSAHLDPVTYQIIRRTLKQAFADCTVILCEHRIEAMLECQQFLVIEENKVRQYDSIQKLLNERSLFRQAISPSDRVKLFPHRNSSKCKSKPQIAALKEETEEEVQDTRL

[2] = biological target: T1, Cystic fibrosis transmembrane conductance regulator (Homo sapiens, UniProt P13569, F508DEL); test: Potentiation of CFTR F508del mutant (unknown origin) expressed in CHO cells assessed as chloride transport by measuring membrane potential incubated for 5 to 30 mins in presence of forskolin by Quattro assay; format: cell-based
T1 sequence (P13569 as listed by the source): as above

[3] = Plasma protein binding in cynomolgus monkey at 5 uM incubated for 4 hrs by equilibrium dialysis method; format: ADME, cell-free, Macaca fascicularis; settings: read-out: PPB (converted)
[4] = Plasma Protein binding in human incubated for 4 hrs by equilibrium dialysis method; format: ADME, cell-free
[5] = Plasma protein binding in Beagle dog at 5 uM incubated for 4 hrs by equilibrium dialysis method; format: ADME, cell-free, Canis lupus familiaris; settings: read-out: PPB (converted)
[6] = Solubility of the compound at pH 6.8; format: physicochemical; settings: buffer
[7] = biological target: T1, Cystic fibrosis transmembrane conductance regulator; test: Potentiation of CFTR F508 deletion mutant (unknown origin) expressed in HBE cells assessed as change in short circuit current in presence of forskolin and amiloride; format: cell-based
[8] = biological target: T1, Cystic fibrosis transmembrane conductance regulator; test: Potentiation of CFTR F508del mutant (unknown origin) expressed in FRT cells assessed as chloride transport by measuring membrane potential in presence of forskolin; format: cell-based
[9] = biological target: Cystic fibrosis transmembrane conductance regulator (Homo sapiens, UniProt P13569, G551D); test: Potentiation of CFTR G551D mutant (unknown origin) expressed in FRT cells assessed as chloride transport by measuring membrane potential in presence of forskolin; format: cell-based
Cystic fibrosis transmembrane conductance regulator (Homo sapiens, UniProt P13569, G551D), sequence (P13569 whole entry G551D): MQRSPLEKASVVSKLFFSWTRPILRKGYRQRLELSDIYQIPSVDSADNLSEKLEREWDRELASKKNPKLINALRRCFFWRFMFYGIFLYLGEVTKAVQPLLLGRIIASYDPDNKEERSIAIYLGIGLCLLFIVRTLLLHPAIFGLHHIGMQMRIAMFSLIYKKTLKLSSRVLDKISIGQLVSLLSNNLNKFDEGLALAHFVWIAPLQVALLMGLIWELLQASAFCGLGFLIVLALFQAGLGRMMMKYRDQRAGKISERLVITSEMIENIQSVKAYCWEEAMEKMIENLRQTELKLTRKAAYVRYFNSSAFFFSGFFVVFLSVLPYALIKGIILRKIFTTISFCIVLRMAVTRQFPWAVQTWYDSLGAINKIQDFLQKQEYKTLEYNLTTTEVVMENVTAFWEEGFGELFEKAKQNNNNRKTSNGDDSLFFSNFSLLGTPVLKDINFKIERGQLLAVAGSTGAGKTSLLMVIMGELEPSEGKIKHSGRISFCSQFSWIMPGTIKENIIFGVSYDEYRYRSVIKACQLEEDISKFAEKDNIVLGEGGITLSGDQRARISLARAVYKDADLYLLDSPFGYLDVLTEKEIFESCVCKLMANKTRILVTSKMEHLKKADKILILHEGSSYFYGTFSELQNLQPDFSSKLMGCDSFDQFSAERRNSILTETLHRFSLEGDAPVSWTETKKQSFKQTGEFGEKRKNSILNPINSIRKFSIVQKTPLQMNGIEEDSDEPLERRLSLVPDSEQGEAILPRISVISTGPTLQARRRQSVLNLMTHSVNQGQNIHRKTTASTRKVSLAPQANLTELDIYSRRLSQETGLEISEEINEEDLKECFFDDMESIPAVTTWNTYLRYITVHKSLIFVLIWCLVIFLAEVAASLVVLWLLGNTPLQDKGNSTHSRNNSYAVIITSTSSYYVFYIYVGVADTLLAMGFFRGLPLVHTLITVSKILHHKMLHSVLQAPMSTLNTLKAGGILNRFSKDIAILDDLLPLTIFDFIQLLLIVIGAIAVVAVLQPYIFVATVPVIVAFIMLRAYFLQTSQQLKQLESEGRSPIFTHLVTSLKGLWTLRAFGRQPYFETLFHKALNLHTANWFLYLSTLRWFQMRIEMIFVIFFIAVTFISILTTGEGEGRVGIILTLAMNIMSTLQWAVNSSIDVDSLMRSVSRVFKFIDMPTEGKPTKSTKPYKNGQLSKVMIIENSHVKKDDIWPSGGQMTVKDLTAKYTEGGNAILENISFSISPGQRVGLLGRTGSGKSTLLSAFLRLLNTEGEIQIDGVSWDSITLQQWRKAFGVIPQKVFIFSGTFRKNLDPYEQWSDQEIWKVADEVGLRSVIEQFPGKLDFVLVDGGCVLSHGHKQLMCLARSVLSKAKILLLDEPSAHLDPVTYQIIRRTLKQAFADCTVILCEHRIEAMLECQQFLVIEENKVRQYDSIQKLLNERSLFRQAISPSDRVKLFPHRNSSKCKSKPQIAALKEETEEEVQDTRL

[10] = biological target: T2, Cystic fibrosis transmembrane conductance regulator (Homo sapiens, UniProt P13569); test: Potentiation of wild type CFTR (unknown origin) expressed in HBE cells assessed as change in short circuit current in presence of forskolin and amiloride; format: cell-based
Target sequence in this assay (P13569 whole entry): as the sequence (P13569 whole entry G551D) above, with D551G counted along it

[11] = biological target: T2, Cystic fibrosis transmembrane conductance regulator; test: Potentiation of wild-type CFTR (unknown origin) expressed in FRT cells assessed as chloride transport by measuring membrane potential in presence of forskolin; format: cell-based
Target sequence in this assay (P13569 whole entry): as the sequence (P13569 whole entry G551D) above, with D551G counted along it

[12] = tested on: Cystic fibrosis transmembrane conductance regulator (Homo sapiens), P13569 [F508del]; test: Potentiation of CFTR F508del mutant (unknown origin) expressed in FRT cells assessed as chloride transport by measuring membrane potential in presence of forskolin relative to PG-01; format: cell-based; settings: filed as activator
[13] = biological target: T2, Cystic fibrosis transmembrane conductance regulator; test: Potentiation of wild-type CFTR (unknown origin) expressed in FRT cells assessed as chloride transport by measuring membrane potential in presence of forskolin relative to PG-01; format: cell-based; settings: filed as activator
Target sequence in this assay (P13569 whole entry, looked up): as the sequence (P13569 whole entry G551D) above, with D551G counted along it

[14] = tested on: Cystic fibrosis transmembrane conductance regulator (Homo sapiens), P13569 [F508del]; test: Potentiation of CFTR F508del mutant (unknown origin) expressed in CHO cells assessed as chloride transport by measuring membrane potential preincubated for 5 mins followed by forskolin addition by FLIPR assay relative to PG-01; format: cell-based; settings: filed as activator
[15] = Volume of distribution at steady state in Sprague-Dawley rat at 5 mg/kg, po or 0.5 mg/kg, iv measured upto 48 hrs by LC-MS/MS analysis; format: ADME, organism-based; settings: in vivo, read-out: Vdss
[16] = Plasma Protein binding in Sprague-Dawley rat at 5 uM incubated for 4 hrs by rapid equilibrium dialysis; format: ADME, cell-free; settings: read-out: PPB (converted)
[17] = Oral bioavailability in Sprague-Dawley rat at 5 mg/kg measured upto 48 hrs by LC-MS/MS analysis; format: ADME, organism-based; settings: in vivo
[18] = biological target: T1, Cystic fibrosis transmembrane conductance regulator; test: Potentiation of CFTR F508del mutant (unknown origin) expressed in CHO cells assessed as chloride transport by measuring membrane potential preincubated for 5 mins followed by forskolin addition by FLIPR assay; format: cell-based
[19] = Mean residence time in Sprague-Dawley rat at 5 mg/kg, po or 0.5 mg/kg, iv measured upto 48 hrs by LC-MS/MS analysis; format: ADME, organism-based; settings: in vivo
[20] = Clearance in Sprague-Dawley rat at 5 mg/kg, po or 0.5 mg/kg, iv measured upto 48 hrs by LC-MS/MS analysis; format: ADME, organism-based; settings: in vivo
[21] = Mean residence time in Sprague-Dawley rat at 3 mg/kg, po and 1 mg/kg, iv measured upto 48 hrs by LC-MS/MS analysis; format: ADME, organism-based; settings: in vivo
[22] = Volume of distribution in Sprague-Dawley rat at 3 mg/kg, po and 1 mg/kg, iv measured upto 48 hrs by LC-MS/MS analysis; format: ADME, organism-based; settings: in vivo
[23] = Cmax in Sprague-Dawley rat at 3 mg/kg, po and 1 mg/kg, iv measured upto 48 hrs by LC-MS/MS analysis; format: ADME, organism-based; set-up: dose 3 mg/kg, time <=48; settings: in vivo
[24] = Oral bioavailability in Sprague-Dawley rat at 3 mg/kg measured upto 48 hrs by LC-MS/MS analysis; format: ADME, organism-based; settings: in vivo
[25] = Clearance in Sprague-Dawley rat at 3 mg/kg, po and 1 mg/kg, iv measured upto 48 hrs by LC MS/MS analysis; format: ADME, organism-based; settings: in vivo
[26] = Unbound Cmax in Sprague-Dawley rat at 3 mg/kg, po and 1 mg/kg, iv measured upto 48 hrs by LC-MS/MS analysis; format: ADME, organism-based; settings: in vivo

Row | Structure (SMILES) | Activity ([1]; filed as activator) | EC50 [2] | solubility [6] | further results
1 | CN(C)c1nc(C(=O)NCC(C)(O)C(F)(F)F)c(N)cc1C(F)(F)F (stereo in doubt; 31a) [listing 1 of 2 here] | 89% | – | – | –
2 | CNC(=O)c1nc(Br)c(C(F)(F)F)cc1N | 97% | 250 nM | – | –
3 | CCc1nc(C(=O)NCC(C)(O)C(F)(F)F)c(N)cc1C(F)(F)F (stereo in doubt; 28b) [listing 1 of 2 here] | – | 43 nM | – | –
4 | COc1nc(C(=O)NC[14C](C)(O)C(F)(F)F)c(N)cc1C(F)(F)F (centres undefined) | – | – | – | fraction unbound at 4 h, 5 µM [3]: 0.12; fraction unbound at 4 h ([4]; read-out: PPB (converted)): 0.077; fraction unbound at 4 h, 5 µM [5]: 0.052
5 | COC(=O)c1nc(-c2ccco2)c(C(F)(F)F)cc1N | 72% | 5310 nM | 11 µg/mL (≈ 38.4 µM) | –
6 | CCOc1nc(C(=O)NC[C@](C)(O)C(F)(F)F)c(N)cc1C(F)(F)F | 116% | 15 nM | 60 µg/mL (≈ 160 µM) | –
7 | CNc1nc(C(=O)NCC(C)(O)C(F)(F)F)c(N)cc1C(F)(F)F (stereo in doubt; 30a) [listing 1 of 2 here] | 91% | – | – | –
8 | COC(=O)c1cc(-c2ncco2)c(C(F)(F)F)cc1N | 92% | 240 nM | 36 µg/mL (≈ 126 µM) | –
9 | COC(=O)c1cc(-c2cccnc2)c(C(F)(F)F)cc1N | 100% | 329 nM | 56 µg/mL (≈ 189 µM) | –
10 | Cc1nc(C(=O)NCC(C)(O)C(F)(F)F)c(N)cc1C(F)(F)F (racemic) | 99% | 240 nM | – | –
11 | COC(=O)c1cc(I)c(C(F)(F)F)cc1N | 104% | 362 nM | 2 µg/mL (≈ 5.8 µM) | –
12 | CNC(=O)c1cc(-c2ccco2)c(C(F)(F)F)cc1N | 83% | 1860 nM | 13 µg/mL (≈ 45.7 µM) | –
13 | CC(C)(C)c1cc(C(C)(C)C)c(NC(=O)c2c[nH]c3ccccc3c2=O)cc1O [IVACAFTOR] | – | – | – | EC50 [7]: 68 nM; EC50 [8]: 49 nM; EC50 [9]: 131 nM; EC50 [10]: 34 nM; EC50 [11]: 70 nM
14 | CC(O)(CNC(=O)c1ncc(C(F)(F)F)cc1N)C(F)(F)F (racemic) | 78% | 229 nM | – | –
15 | Nc1cc(C(F)(F)F)c(Br)nc1C(=O)NCCC(F)(F)F | 132% | 40 nM | 49 µg/mL (≈ 129 µM) | –
16 | CNc1nc(C(=O)NCC(C)(O)C(F)(F)F)c(N)cc1C(F)(F)F (stereo in doubt; 30b) [listing 1 of 2 here] | – | 111 nM | – | –
17 | Nc1cc(C(F)(F)F)c(Br)nc1C(=O)NCC(O)(C(F)(F)F)C(F)(F)F | 117% | 10 nM | 3 µg/mL (≈ 6.46 µM) | –
18 | CN(C)C(=O)c1cc(-c2ccco2)c(C(F)(F)F)cc1N | – | 30000 nM | – | Activity [1]: 37%
19 | CC(O)CNC(=O)c1nc(Br)c(C(F)(F)F)cc1N (racemic) | 79% | 70 nM | 120 µg/mL (≈ 351 µM) | –

Row | Structure (SMILES) | Activity ([1]; filed as activator) | EC50 [2] | solubility [6] | further results
20 | COC(=O)c1ccccc1N [METHYL ANTHRANILATE] | – | 30000 nM | – | –
21 | CN(C)c1nc(C(=O)NCC(C)(O)C(F)(F)F)c(N)cc1C(F)(F)F (stereo in doubt; 31b) [listing 1 of 2 here] | – | 46 nM | – | –
22 | CCc1nc(C(=O)NCC(C)(O)C(F)(F)F)c(N)cc1C(F)(F)F (stereo in doubt; 28b) [listing 2 of 2 here] | 101% | – | – | –
23 | O=c1c(-c2ccc(O)cc2)coc2cc(O)cc(O)c12 | 88% | – | – | Activity [12]: 54%; Activity [13]: 138%; Activity [14]: 83%
24 | COC(=O)c1cc(-c2ccco2)c(C(F)(F)F)cc1N | 93% | 78 nM | < 1 µg/mL | Vd [15]: 0.4 L/kg; fraction unbound at 4 h, 5 µM [16]: 0.005; bioavailability [17]: 15%; Activity [12]: 100%; Activity [13]: 206%; EC50 [18]: 920 nM; MRT [19]: 12 min; EC50 [8]: 180 nM; Activity [14]: 154%; clearance [20]: 30 mL/min/kg; EC50 [11]: 30000 nM
25 | Nc1cc(C(F)(F)F)c(Br)nc1C(=O)NC[C@H](O)C(F)(F)F | 102% | 23 nM | 290 µg/mL (≈ 732 µM) | –
26 | CN(C)c1nc(C(=O)NCC(C)(O)C(F)(F)F)c(N)cc1C(F)(F)F (stereo in doubt; 31a) [listing 2 of 2 here] | – | 20 nM | 165 µg/mL (≈ 441 µM) | –
27 | CCc1nc(C(=O)NCC(C)(O)C(F)(F)F)c(N)cc1C(F)(F)F (stereo in doubt; 28a) [listing 1 of 2 here] | – | 8 nM | 91 µg/mL (≈ 253 µM) | –
28 | CN(C)c1nc(C(=O)NCC(C)(O)C(F)(F)F)c(N)cc1C(F)(F)F (stereo in doubt; 31b) [listing 2 of 2 here] | 93% | – | – | –
29 | CNc1nc(C(=O)NCC(C)(O)C(F)(F)F)c(N)cc1C(F)(F)F (stereo in doubt; 30a) [listing 2 of 2 here] | – | 276 nM | 13 µg/mL (≈ 36.1 µM) | –
30 | COC(=O)c1ccc(C(F)(F)F)cc1N | 72% | 3780 nM | < 1 µg/mL | –
31 | COC(=O)c1cc(C2CCCO2)c(C(F)(F)F)cc1N (racemic) | 90% | 462 nM | 6 µg/mL (≈ 20.7 µM) | –
32 | CNc1nc(C(=O)NCC(C)(O)C(F)(F)F)c(N)cc1C(F)(F)F (stereo in doubt; 30b) [listing 2 of 2 here] | 95% | – | – | –
33 | Nc1cc(C(F)(F)F)c(-c2ccco2)cc1C(=O)O | 63% | 5830 nM | – | –
34 | CC(C)c1ccc(NC(=O)C(c2ccccc2)N(C)C(=O)Cc2c[nH]c3ccccc23)cc1 (centres undefined) | – | 1250 nM | – | EC50 [18]: 390 nM; EC50 [8]: 260 nM; EC50 [11]: 990 nM
35 | C[C@@](O)(CNC(=O)c1nc(Br)c(C(F)(F)F)cc1N)C(F)(F)F | 91% | 30 nM | 16 µg/mL (≈ 39 µM) | –
36 | CCc1nc(C(=O)NCC(C)(O)C(F)(F)F)c(N)cc1C(F)(F)F (stereo in doubt; 28a) [listing 2 of 2 here] | 100% | – | – | –
37 | C[C@](O)(CNC(=O)c1nc(C(F)(F)F)c(C(F)(F)F)cc1N)C(F)(F)F | 113% | 9 nM | 82 µg/mL (≈ 205 µM) | MRT [21]: 7.2 h; PPB ([4]; 4 h): 98.6%; fraction unbound at 4 h, 5 µM [16]: 0.019; Vd [22]: 6.4 L/kg; Cmax [23]: 595 nM; bioavailability [24]: 75%; clearance [25]: 15 mL/min/kg; fCmax [26]: 11 nM
38 | CC(C)(O)CNC(=O)c1nc(Br)c(C(F)(F)F)cc1N | 101% | 77 nM | 28 µg/mL (≈ 78.6 µM) | –
